Experimental findings from PubChem BioAssay (NCI) are described below.

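Values below derive from 48-hour exposures of cells grown in 96-well plates, with endpoints linearly interpolated between the two concentrations bracketing the appropriate inhibition level. TGI is the concentration that stops growth completely.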

Among the test systems are 786-0 renal; CCRF-CEM leukemia; COLO 205 colon; HL-60(TB) leukemia; IGROV1 ovarian; K-562 leukemia; MCF7 breast; MOLT-4 leukemia; NCI-H226 lung; NCI-H460 lung; NCI/ADR-RES ovarian; OVCAR-5 ovarian; RPMI-8226 leukemia; SF-268 CNS; SR leukemia; SW-620 colon; T-47D breast; UACC-62 melanoma; OVCAR-3 ovarian; SK-OV-3 ovarian.
What all share (experiment): inhibition of tumour cell growth, NCI panel, 48 h

In the case of `COc1cc(/C=C/C2=NN(c3cccc(S(=O)(=O)O)c3)C3(C2)C(Cl)C(=O)N3c2nc3ccccc3s2)ccc1O` (centres undefined), the TGI in the experiment on 786-0 renal stood at 32.2 µM; in the experiment with CCRF-CEM leukemia, 42.2 µM; in the experiment on COLO 205 colon, 40.4 µM; with HL-60(TB) leukemia, 42.5 µM; in the experiment with IGROV1 ovarian, 31.5 µM; in the experiment with K-562 leukemia it was 61.9 µM. The TGI was > 100 µM with MCF7 breast; 44.9 µM in the experiment on MOLT-4 leukemia; 52.6 µM in the experiment with NCI-H226 lung; > 100 µM in the experiment with NCI-H460 lung; 99.4 µM in the experiment with NCI/ADR-RES ovarian; 37.9 µM with OVCAR-5 ovarian. In addition, the TGI with RPMI-8226 leukemia was found to be 37.6 µM; with SF-268 CNS, 50.5 µM; in the experiment on SR leukemia, 34.8 µM; with SW-620 colon it was 48 µM; in the experiment with T-47D breast it was 26.4 µM; in the experiment with UACC-62 melanoma it was 43.1 µM.

In the case of `COc1ccc(/C=C(\NC(=O)c2ccccc2)C(=O)NN(C)c2ccnc3cc(Cl)ccc23)cc1OC`, the TGI with 786-0 renal was 79.2 µM; in the experiment with COLO 205 colon, 61 µM; in the experiment with IGROV1 ovarian, 47.6 µM; with K-562 leukemia it was 51.2 µM; in the experiment with MCF7 breast, 46.3 µM; in the experiment on MOLT-4 leukemia it was 47.7 µM. For the same compound, the TGI in the experiment on NCI-H226 lung was 40.8 µM; with NCI-H460 lung, 39.3 µM; in the experiment on NCI/ADR-RES ovarian it was 43.8 µM; in the experiment on OVCAR-3 ovarian, 69.7 µM; in the experiment on OVCAR-5 ovarian, > 100 µM; with RPMI-8226 leukemia it was 45.3 µM. In addition, the TGI was 35.4 µM in the experiment with SF-268 CNS; > 100 µM in the experiment with SK-OV-3 ovarian; 41.3 µM in the experiment with SR leukemia; 51.3 µM in the experiment on SW-620 colon; > 100 µM in the experiment on T-47D breast.

As for `CC(C)(C)OC(=O)CN1CCNCCN(CC(=O)OC(C)(C)C)CC1`, the TGI was > 100 µM in the experiment on 786-0 renal; > 100 µM in the experiment on CCRF-CEM leukemia; > 100 µM in the experiment on COLO 205 colon; 86.1 µM with HL-60(TB) leukemia; > 100 µM with IGROV1 ovarian; > 100 µM in the experiment with K-562 leukemia. Also, the TGI in the experiment with MCF7 breast, in the experiment on MOLT-4 leukemia, in the experiment with NCI-H226 lung, in the experiment with NCI-H460 lung, in the experiment with NCI/ADR-RES ovarian and in the experiment on OVCAR-3 ovarian was > 100 µM each time. Also, the TGI in the experiment on OVCAR-5 ovarian, with RPMI-8226 leukemia, in the experiment with SK-OV-3 ovarian, in the experiment on SR leukemia, in the experiment with T-47D breast and with UACC-62 melanoma was > 100 µM in each case.

`COC1OC(COC(=O)NCCCCC(=O)C(F)(F)F)C(O)C(O)C1O` (centres undefined): the TGI with 786-0 renal, in the experiment on CCRF-CEM leukemia, in the experiment with COLO 205 colon, in the experiment on HL-60(TB) leukemia, with IGROV1 ovarian and in the experiment with K-562 leukemia was > 100 µM in each case. For the same compound, the TGI in the experiment with MCF7 breast, in the experiment on MOLT-4 leukemia, in the experiment on NCI-H460 lung, in the experiment with NCI/ADR-RES ovarian, in the experiment with OVCAR-3 ovarian and with OVCAR-5 ovarian was > 100 µM throughout. For the same compound, the TGI in the experiment with RPMI-8226 leukemia, with SF-268 CNS, with SK-OV-3 ovarian, in the experiment on SR leukemia, in the experiment on SW-620 colon and with T-47D breast was > 100 µM each time. Also, the TGI with UACC-62 melanoma is > 100 µM.

`CN(C)c1ccc(/C=C/c2cc[n+](C)c3ccccc23)cc1`: the TGI was 17 µM in the experiment with 786-0 renal; > 61.9 µM in the experiment on CCRF-CEM leukemia; 3.2 µM in the experiment on COLO 205 colon; 21 µM with IGROV1 ovarian; > 45.1 µM with K-562 leukemia; 7.75 µM in the experiment with MCF7 breast. Also, the TGI with MOLT-4 leukemia was > 38.3 µM; in the experiment with NCI-H226 lung, 16.2 µM; with NCI-H460 lung, 14.3 µM; with NCI/ADR-RES ovarian it was > 100 µM; in the experiment on OVCAR-3 ovarian it was 13.5 µM; in the experiment with OVCAR-5 ovarian, 24.9 µM. Moreover, the TGI worked out at 21.5 µM in the experiment with RPMI-8226 leukemia; 21.5 µM with SF-268 CNS; 27 µM with SK-OV-3 ovarian; 6.51 µM with SR leukemia; 12.9 µM in the experiment with SW-620 colon; 16.6 µM with T-47D breast. For the same compound, the TGI in the experiment on UACC-62 melanoma turned out to be 12 µM.

Consider `O=[N+]([O-])/C(C(Cl)=C(Cl)Cl)=C1/OCCS1`, for which the TGI in the experiment on 786-0 renal was determined as 38.6 µM; in the experiment with CCRF-CEM leukemia, 35.4 µM; in the experiment on COLO 205 colon, 36.8 µM; in the experiment with HL-60(TB) leukemia, 37.6 µM; with IGROV1 ovarian it was 47.7 µM; with K-562 leukemia it was 77.7 µM. The TGI was > 100 µM in the experiment on MCF7 breast; 41.2 µM in the experiment with MOLT-4 leukemia; 56.1 µM in the experiment with NCI-H226 lung; 71.4 µM in the experiment on NCI-H460 lung; 33.6 µM in the experiment on NCI/ADR-RES ovarian; 36.8 µM in the experiment with OVCAR-3 ovarian. Moreover, the TGI is 92.6 µM in the experiment on OVCAR-5 ovarian; 66.2 µM with RPMI-8226 leukemia; 71.1 µM in the experiment on SF-268 CNS; > 100 µM in the experiment on SK-OV-3 ovarian; 71.5 µM with SR leukemia; 91 µM with T-47D breast. Moreover, the TGI with UACC-62 melanoma came to 61.9 µM.

Regarding `CN1CN(c2ccccc2)C2(CCN(CCCC(=O)c3cccs3)CC2)C1=O`, the TGI in the experiment on 786-0 renal was > 100 µM; in the experiment with CCRF-CEM leukemia, > 100 µM; with COLO 205 colon, 47.7 µM; in the experiment with HL-60(TB) leukemia, > 100 µM; with IGROV1 ovarian, > 100 µM; in the experiment with K-562 leukemia it was > 100 µM. Further, the TGI was 72.6 µM with MCF7 breast; > 100 µM with MOLT-4 leukemia; > 100 µM in the experiment on NCI-H226 lung; > 100 µM in the experiment on NCI/ADR-RES ovarian; > 100 µM with OVCAR-3 ovarian; 87.4 µM in the experiment on OVCAR-5 ovarian. The TGI in the experiment on RPMI-8226 leukemia, with SF-268 CNS, with SK-OV-3 ovarian, with SR leukemia, with SW-620 colon and with T-47D breast was > 100 µM each time. Also, in the experiment with UACC-62 melanoma, the TGI was > 100 µM.
